Experimental data reported in ChEMBL document CHEMBL4359901, “Cyclic enaminone as new chemotype for selective cyclooxygenase-2 inhibitory, anti-inflammatory, and analgesic activities” (Eur J Med Chem, 2019).

Columns and labels:
[1] = target: Prostaglandin G/H synthase 1 (Ovis aries) (UniProt P05979); assay: Inhibition of ovine COX1 assessed as reduction in PGF2alpha at 10 uM incubated for 2 mins using arachidonic acid as substrate by ELISA relative to control
[2] = target: Prostaglandin G/H synthase 2 (Homo sapiens) (UniProt P35354); assay: Inhibition of recombinant human COX2 assessed as reduction in PGF2alpha at 10 uM incubated for 2 mins using arachidonic acid as substrate by ELISA relative to control
[3] = Selectivity index, ratio of IC50 for inhibition of ovine COX1 to IC50 for inhibition of recombinant human COX2
Rattus norvegicus [4] = assay: Antiinflammatory activity in Wistar albino rat assessed as reduction in carrageenan-induced paw edema at 25 mg/kg, ip measured after 1 hr by plethysmometric method (reference value: 1.43 +/- 0.19 ml); type: functional
Rattus norvegicus [5] = assay: Antiinflammatory activity in Wistar albino rat assessed as reduction in carrageenan-induced paw edema at 25 mg/kg, ip measured after 2 hrs by plethysmometric method (reference value: 1.58 +/- 0.21 ml); type: functional
Rattus norvegicus [6] = assay: Antiinflammatory activity in Wistar albino rat assessed as reduction in carrageenan-induced paw edema at 25 mg/kg, ip measured after 3 hrs by plethysmometric method (reference value: 1.75 +/- 0.33 ml); type: functional
Rattus norvegicus [7] = assay: Antiinflammatory activity in Wistar albino rat assessed as reduction in carrageenan-induced paw volume at 12.5 mg/kg, ip measured after 1 hr by plethysmometric method (reference value: 1.43 +/- 0.19 ml); type: functional
Rattus norvegicus [8] = assay: Antiinflammatory activity in Wistar albino rat assessed as reduction in carrageenan-induced paw volume at 12.5 mg/kg, ip measured after 2 hrs by plethysmometric method (reference value: 1.58 +/- 0.21 ml); type: functional
Rattus norvegicus [9] = assay: Antiinflammatory activity in Wistar albino rat assessed as reduction in carrageenan-induced paw volume at 12.5 mg/kg, ip measured after 3 hrs by plethysmometric method (reference value: 1.75 +/- 0.33 ml); type: functional
Rattus norvegicus [10] = assay: Analgesic activity in Wistar albino rat assessed as reaction time at 25 mg/kg, ip measured after 30 mins for 15 secs by hot plate method (reference value: 4.21 +/- 0.41 sec); type: functional
Rattus norvegicus [11] = assay: Analgesic activity in Wistar albino rat assessed as reaction time at 25 mg/kg, ip measured after 60 mins for 15 secs by hot plate method (reference value: 4.67 +/- 0.52 sec); type: functional
Rattus norvegicus [12] = assay: Analgesic activity in Wistar albino rat assessed as reaction time at 25 mg/kg, ip measured after 120 mins for 15 secs by hot plate method (reference value: 4.32 +/- 0.52 sec); type: functional
Rattus norvegicus [13] = assay: Analgesic activity in Wistar albino rat assessed as reaction time at 25 mg/kg, ip measured after 180 mins for 15 secs by hot plate method (reference value: 3.87 +/- 0.38 sec); type: functional
Rattus norvegicus [14] = assay: Analgesic activity in Wistar albino rat assessed as reaction time at 12.5 mg/kg, ip measured after 30 mins for 15 secs by hot plate method (reference value: 4.21 +/- 0.41 sec); type: functional
Rattus norvegicus [15] = assay: Analgesic activity in Wistar albino rat assessed as reaction time at 12.5 mg/kg, ip measured after 60 mins for 15 secs by hot plate method (reference value: 4.67 +/- 0.52 sec); type: functional
Rattus norvegicus [16] = assay: Analgesic activity in Wistar albino rat assessed as reaction time at 12.5 mg/kg, ip measured after 120 mins for 15 secs by hot plate method (reference value: 4.32 +/- 0.52 sec); type: functional
Rattus norvegicus [17] = assay: Analgesic activity in Wistar albino rat assessed as reaction time at 12.5 mg/kg, ip measured after 180 mins for 15 secs by hot plate method (reference value: 3.87 +/- 0.38 sec); type: functional
[18] = Antioxidant activity assessed as DPPH radical scavenging activity at 10 uM/ml incubated for 20 mins by spectrophotometric method relative to control; type: functional
[19] = Antioxidant activity assessed as DPPH radical scavenging activity at 20 uM/ml incubated for 20 mins by spectrophotometric method relative to control; type: functional
[20] = Antioxidant activity assessed as DPPH radical scavenging activity at 40 uM/ml incubated for 20 mins by spectrophotometric method relative to control; type: functional
[21] = Antioxidant activity assessed as DPPH radical scavenging activity at 60 uM/ml incubated for 20 mins by spectrophotometric method relative to control; type: functional
[22] = Antioxidant activity assessed as DPPH radical scavenging activity at 80 uM/ml incubated for 20 mins by spectrophotometric method relative to control; type: functional
[23] = Antioxidant activity assessed as DPPH radical scavenging activity at 100 uM/ml incubated for 20 mins by spectrophotometric method relative to control; type: functional
[24] = Antioxidant activity assessed as DPPH radical scavenging activity incubated for 20 mins by spectrophotometric method; type: functional
[25] = Ulcerogenicity in Sprague-Dawley rat assessed as formation of ulcer at 20 mg/kg, po after 1 hr by microscopic analysis; type: toxicity, organism-based; conditions: in vivo

## O=C1C=C(Nc2ccc(F)cc2)CC1
[1]
  inhibition: 43.5%
[2]
  inhibition: 22.2%

## Cc1ccc(NC2=CC(=O)CCC2)cc1
[1]
  inhibition: 11.2%
[2]
  inhibition: 34.2%

## O=C1C=C(N2CCCC2)CCC1
[1]
  inhibition: 12.5%
[2]
  inhibition: 45.6%

## CC(C)(C)OC(=O)N(C1=CC(=O)CCC1)c1ccc(Cl)cc1
[3]
  Ratio IC50: 19.4
Rattus norvegicus [4]
  Activity: 1.3 mL
Rattus norvegicus [5]
  Activity: 1.24 mL
Rattus norvegicus [6]
  Activity: 1.19 mL
Rattus norvegicus [7]
  Activity: 1.24 mL
Rattus norvegicus [8]
  Activity: 1.28 mL
Rattus norvegicus [9]
  Activity: 1.18 mL
Rattus norvegicus [10]
  Time: 6.53 s
Rattus norvegicus [11]
  Time: 6.87 s
Rattus norvegicus [12]
  Time: 9.98 s
Rattus norvegicus [13]
  Time: 7.85 s
Rattus norvegicus [14]
  Time: 5.59 s
Rattus norvegicus [15]
  Time: 6.29 s
Rattus norvegicus [16]
  Time: 7.99 s
Rattus norvegicus [17]
  Time: 7.95 s
[18]
  Activity: 23.1%
[19]
  Activity: 36.5%
[20]
  Activity: 49.6%
[21]
  Activity: 63%
[22]
  Activity: 77.2%
[23]
  Activity: 89.1%
[24]
  IC50: 42.6 µM
[1]
  inhibition: 30.5%
[2]
  inhibition: 73.5%

## O=C1C=C(Nc2nc3ccccc3s2)CCC1
[1]
  inhibition: 5.14%
[2]
  inhibition: 34%

## COc1ccc2c(c1)c(CC(=O)O)c(C)n2C(=O)c1ccc(Cl)cc1 [INDOMETHACIN]
[25]
  Activity: Toxic

## O=C1C=C(NN2CCCCC2)CCC1
[1]
  inhibition: 11.3%
[2]
  inhibition: 43.2%

## O=C1C=C(Nc2ccc(F)cc2)CCC1
[1]
  inhibition: 14.3%
[2]
  inhibition: 55.6%

## CSc1ccc(NC2=CC(=O)CCC2)cc1
[1]
  inhibition: 12.8%
[2]
  inhibition: 27.8%

## O=C1C=C(NCc2ccco2)CCC1
[1]
  inhibition: 27.2%
[2]
  inhibition: 48.4%

## O=C1C=C(Nc2ccc([N+](=O)[O-])cc2)CCC1
[1]
  inhibition: 31%
[2]
  inhibition: 24.2%

## CC1(C)CC(=O)C=C(NCc2ccco2)C1
[1]
  inhibition: 28.6%
[2]
  inhibition: 43.9%
